In US20140081017A1, “Histone Deacetylase Inhibitors for Enhancing Activity of Antifungal Agents” (METHYLGENE INC., priority 2012, published 2014):
Values after ≈ are worked out from the molar mass of the structure shown. Read-outs that look alike come from different tables or passages of the source.

Columns and labels:
Candida albicans = assay: Minimal Inhibitory Concentration (MIC) assay, broth microdilution per CLSI; format: cell-based; settings: for MIC: Candida albicans, read-out: Minimum Inhibitory Concentrations against Yeast Isolates, Candida albicans;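 for all read-outs here: two read times 24 hr and 48 hr of incubation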
Experimental: (§1) The in vitro activities of the inventive compounds (compound(s) herein) against fungi and/or yeasts were determined with isolates Candida albicans, Candida glabrata and Candida parapsilosis. The comparator compounds included fluconazole, caspofungin and amphotericin B.
(§2) The compounds were supplied as a powder, and were dissolved in dimethylsulfoxide (DMSO) the day of assay. Stock solutions were prepared at 10 mg/mL and diluted to a starting stock concentration of 2.56 mg/mL. Amphotericin B was dissolved in DMSO to a stock concentration of 2.56 mg/mL. Fluconazole was dissolved in deionized water to a stock concentration of 2.56 mg/mL. Caspofungin was received as a stock solution of 3.2 mg/mL in DMSO and was diluted to a starting stock concentration of 2.56 mg/mL.
(§3) The test organisms and reference isolates were streaked for isolation on Sabouraud agar medium (yeasts) or potato dextrose agar (fungi). Colonies were picked by swab from the medium and resuspended in the appropriate broth containing cryoprotectant. The suspensions were aliquoted into cryogenic vials and maintained at −80° C.
(§4) Prior to testing, the yeast isolates were streaked from the frozen vials onto Sabouraud dextrose agar. The plates were incubated overnight at 35° C. The fungal isolate was grown on potato dextrose agar slants and was incubated for 7-10 days at room temperature.
(§5) Both yeast and fungal isolates were tested in RPMI medium buffered with 0.165 M MOPS (3-(N-morpholino)propanesulfonic acid). The pH of the medium was adjusted to 7.0 with 1 N NaOH. The medium was sterile filtered using a 0.2 um PES (polyethersulfone) filter and stored at 4° C. until used.
(§6) The MIC assay method followed the procedure described by the Clinical and Laboratory Standards Institute (CLSI; 1, 2, 3) and employed automated liquid handlers to conduct serial dilutions and liquid transfers. Automated liquid handlers included the Multidrop 384 (Labsystems, Helsinki, Finland), Biomek 2000 and Biomek FX (Beckman Coulter, Fullerton Calif.). The wells in columns 2-12 in standard 96-well microdilution plates (Costar 3795) were filled with 150 ul of 100% DMSO. These would become the ‘mother plates’ from which ‘daughter’ or test plates would be prepared. The compounds (300 uL at 40× the desired top concentration in the test plates) were dispensed into the appropriate well in Column 1 of the mother plates. The Biomek 2000 was used to make serial 1:1 dilutions through Column 11 in the “mother plate”. The wells of Column 12 contained no compounds and were the organism growth control wells.
(§7) The daughter plates were loaded with 185 uL per well of RPMI described above using the Multidrop 384. The daughter plates were prepared using the Biomek FX which transferred 5 μL of the compound solution from each well of a mother plate to the corresponding well of the daughter plate in a single step.
(§8) Standardized inoculum of each organism was prepared per CLSI methods. For yeast isolates, colonies were picked from the streak plate and a suspension was prepared in 0.85% saline. For the fungal isolate, 1 mL of 0.85% saline was dispensed onto the potato dextrose agar slant that had been inoculated 7-10 days previously. Using a swab, a suspension of the fungus was made. After a short time to allow the heavy particles to settle out, a small quantity of the supernatant was dispensed into 0.85% saline and the suspension adjusted to equal a 0.5 McFarland turbidity standard. Both yeast and fungal isolates were diluted 1:100 in RPMI and then transferred to compartments of sterile reservoirs divided by length (Beckman Coulter). The Biomek 2000 was used to inoculate the plates. Daughter plates were placed on the Biomek 2000 work surface reversed so that inoculation took place from low to high compound concentration. The Biomek 2000 delivered 10 μL of standardized inoculum into each well. Thus, the wells of the daughter plates ultimately contained 185 uL of RPMI, 5 uL of the compound solution, and 10 uL of inoculum. […]

Candida glabrata = assay: as above; format: cell-based; settings: for MIC: Nakaseomyces glabratus, read-out: Minimum Inhibitory Concentrations against Yeast Isolates, Candida glabrata;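 for all read-outs here: two read times 24 hr and 48 hr of incubation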
Experimental: as §1, §2, §3, §4, §5, §6, §7, §8

Candida parapsilosis = assay: as above; format: cell-based; settings: for MIC: Lodderomyces parapsilosis, read-out: Minimum Inhibitory Concentrations against Yeast Isolates, Candida parapsilosis;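 for all read-outs here: two read times 24 hr and 48 hr of incubation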
Experimental: as §1, §2, §3, §4, §5, §6, §7, §8

C. glabrata = assay: Checkerboard FIC assay in combination with fluconazole (MIC alone and in combination, FICI); format: cell-based, Candida glabrata; settings: for FICI of combination resulting in fluconazole MIC of: 2 ug/mL / FICI of combination resulting in fluconazole MIC of: 4 ug/mL / FICI of combination resulting in fluconazole MIC of: 8 ug/mL: FICI calculated using a fluconazole MIC of 16 μg/mL; for FICI of combination resulting in fluconazole MIC of: 2 ug/mL (value in parenthesis) / FICI of combination resulting in fluconazole MIC of: 4 ug/mL (value in parenthesis) / FICI of combination resulting in fluconazole MIC of: 8 ug/mL (value in parenthesis): FICI using a fluconazole MIC of 128 μg/mL; for MIC: Nakaseomyces glabratus; for Multiple of compound MIC to synergize fluconazole MIC to 2 ug/mL / Multiple of compound MIC to synergize fluconazole MIC to 4 ug/mL / Multiple of compound MIC to synergize fluconazole MIC to 8 ug/mL: concentration in combination as multiple of the compound's MIC alone; for Multiple of compound MIC to synergize fluconazole MIC to 2 ug/mL: fluconazole MIC 2 ug/mL; for Multiple of compound MIC to synergize fluconazole MIC to 4 ug/mL: fluconazole MIC 4 ug/mL; for Multiple of compound MIC to synergize fluconazole MIC to 8 ug/mL: fluconazole MIC 8 ug/mL; for Concentration of Methylgene compound to synergize fluconazole MIC to 2 ug/mL / Concentration of Methylgene compound to synergize fluconazole MIC to 4 ug/mL / Concentration of Methylgene compound to synergize fluconazole MIC to 8 ug/mL: in combination with fluconazole; for Concentration of Methylgene compound to synergize fluconazole MIC to 2 ug/mL: fluconazole MIC lowered to 2 ug/mL; for Concentration of Methylgene compound to synergize fluconazole MIC to 4 ug/mL: fluconazole MIC lowered to 4 ug/mL; for Concentration of Methylgene compound to synergize fluconazole MIC to 8 ug/mL: fluconazole MIC lowered to 8 ug/mL
Experimental: The ability of the compounds to synergize with azoles against C. glabrata was evaluated by the checkerboard assay, a common laboratory method used to evaluate synergy, antagonism, and indifference using fractional inhibitory concentrations (FICs) and FIC indices (FICI).
The test compounds were supplied as a powder and dissolved in dimethylsulfoxide (DMSO) on the day of assay. Stock solutions were prepared at 640 ug/mL. Fluconazole was dissolved in deionized water to a stock concentration of 320 ug/mL. All test articles were in solution under these conditions.
as §3, §4, §5
FIC values were determined using a broth microdilution method (CLSI; 1, 3). To prepare the test plates, automated liquid handlers (Multidrop 384, Labsystems, Helsinki, Finland; Biomek 2000 and Biomek FX, Beckman Coulter, Fullerton Calif.) were used to conduct serial dilutions and liquid transfers.
The wells of standard 96-well microdilution plates (Costar 3795) were filled with 150 uL of DMSO in columns 2-12. Three hundred microliters of each test compound was added to each well in Column 1 of the plates. The Biomek 2000 was used to make eleven 2-fold serial dilutions in each of these “test compound mother” plates. The wells of the “fluconazole mother plates” were filled with 150 uL of sterile water in rows B-H. Row A of these plates was filled with 300 uL of the fluconazole stock solution. Serial 2-fold dilutions were then prepared from top to bottom by hand, using a multichannel pipette in rows B-G. The “daughter plates” were loaded with 180 uL of RPMI using the Multidrop 384. The Biomek FX was used to transfer 5 uL of compound solution from each well of a fluconazole mother plate to the corresponding well in all of the daughter plates in a single step. Then the Biomek FX was used to transfer 5 uL of compound solution from each well of a test compound mother plate to the corresponding well of the corresponding test compound daughter plate (already containing fluconazole at the appropriate concentrations) in a single step. Row H and Column 12 each contained serial dilutions of the test agent and fluconazole alone, respectively, for determination of the MIC.
Standardized inoculum of each organism was prepared per CLSI methods (CLSI; 1, 3). For yeast isolates, colonies were picked from the primary plate and a suspension was prepared in 0.85% saline to equal a 0.5 McFarland turbidity standard. For the fungal isolate, 1 mL of 0.85% saline was dispensed onto a potato dextrose agar slant onto which the isolate had been inoculated 7-10 days previously. Using a swab, a suspension of the fungus was made. After a short time to allow the heavy particles to settle out, a small quantity of the supernatant was dispensed into 0.85% saline and the suspension was adjusted to equal a 0.5 McFarland turbidity standard. Both yeast and fungal isolates were diluted 1:100 in RPMI and then transferred to compartments of sterile reservoirs divided by length (Beckman Coulter). The Biomek 2000 was used to inoculate the plates. […]

[1] = 24 hr reading (first value of cell 24 hr/48 hr)
[2] = 48 hr reading (second value of cell 24 hr/48 hr)
[3] = MIC of the example compound alone against C. glabrata in the checkerboard assay, approximately 48 hr, read-out: Methylgene MIC
[4] = test compound alone, C. glabrata, approx. 48 hr at 35° C., read-out: Compound MIC

Row | FICI of combination resulting in fluconazole MIC of: 2 ug/mL (C. glabrata; C. glabrata) | FICI of combination resulting in fluconazole MIC of: 4 ug/mL (C. glabrata; C. glabrata) | FICI of combination resulting in fluconazole MIC of: 8 ug/mL (C. glabrata; C. glabrata) | FICI of combination resulting in fluconazole MIC of: 2 ug/mL (value in parenthesis) (C. glabrata; C. glabrata) | FICI of combination resulting in fluconazole MIC of: 4 ug/mL (value in parenthesis) (C. glabrata; C. glabrata) | FICI of combination resulting in fluconazole MIC of: 8 ug/mL (value in parenthesis) (C. glabrata; C. glabrata) | MIC (C. glabrata; [3]) | MIC (C. glabrata; [4]) | Multiple of compound MIC to synergize fluconazole MIC to 2 ug/mL (C. glabrata) | Multiple of compound MIC to synergize fluconazole MIC to 4 ug/mL (C. glabrata) | Multiple of compound MIC to synergize fluconazole MIC to 8 ug/mL (C. glabrata) | Concentration of Methylgene compound to synergize fluconazole MIC to 2 ug/mL (C. glabrata; C. glabrata) | Concentration of Methylgene compound to synergize fluconazole MIC to 4 ug/mL (C. glabrata; C. glabrata) | Concentration of Methylgene compound to synergize fluconazole MIC to 8 ug/mL (C. glabrata; C. glabrata) | MIC (Candida albicans; [1]) | MIC (Candida albicans; [2]) | MIC (Candida glabrata; [1]) | MIC (Candida glabrata; [2]) | MIC (Candida parapsilosis; [1]) | MIC (Candida parapsilosis; [2]) | SMILES | other results
1 |  |  |  |  |  |  |  |  |  |  |  |  |  |  |  |  |  |  |  |  | C[C@@H]1[C@H](O)[C@@H](C)/C=C/C=C/C=C/C=C/C=C/C=C/C=C/[C@H](O[C@@H]2O[C@H](C)[C@@H](O)[C@H](N)[C@@H]2O)C[C@@H]2O[C@](O)(C[C@@H](O)C[C@@H](O)[C@H](O)CC[C@@H](O)C[C@@H](O)CC(=O)O[C@H]1C)C[C@H](O)[C@H]2C(=O)O [Amphotericin B, reference compound] | Minimum Inhibitory Concentrations against Yeast Isolates, Candida albicans (Candida albicans; [1]): < 0.06 µg/mL; Minimum Inhibitory Concentrations against Yeast Isolates, Candida albicans (Candida albicans; [2]): 0.25 µg/mL; Minimum Inhibitory Concentrations against Yeast Isolates, Candida glabrata (Candida glabrata; [1]): < 0.06 µg/mL; Minimum Inhibitory Concentrations against Yeast Isolates, Candida glabrata (Candida glabrata; [2]): 0.5 µg/mL; Minimum Inhibitory Concentrations against Yeast Isolates, Candida parapsilosis (Candida parapsilosis; [1]): 0.25 µg/mL; Minimum Inhibitory Concentrations against Yeast Isolates, Candida parapsilosis (Candida parapsilosis; [2]): 0.5 µg/mL
2 | 0.625 | 0.500 | 0.625 | 0.516 | 0.281 | 0.188 | 8 µg/mL | 8 µg/mL | (½x) | (¼x) | (⅛x) | 4 µg/mL | 2 µg/mL | 1 µg/mL | 32 µg/mL (≈ 110 µM) | 32 µg/mL (≈ 110 µM) | > 64 µg/mL | > 64 µg/mL | 32 µg/mL (≈ 110 µM) | 32 µg/mL (≈ 110 µM) | O=C(Cc1csc(CCCCc2ccccc2)n1)NO [Example 1, N-hydroxy-2-(2-(4-phenylbutyl)thiazol-4-yl)acetamide] | 
3 | 0.375 | 0.500 | 0.625 | 0.266 | 0.281 | 0.188 | 16 µg/mL | 16 µg/mL | (¼x) | (¼x) | (⅛x) | 4 µg/mL | 4 µg/mL | 2 µg/mL | 64 µg/mL (≈ 220 µM) | 64 µg/mL (≈ 220 µM) | > 64 µg/mL | > 64 µg/mL | 64 µg/mL (≈ 220 µM) | 64 µg/mL (≈ 220 µM) | O=C(Cc1cnc(CCCCc2ccccc2)s1)NO [Example 2, N-hydroxy-2-(2-(4-phenylbutyl)thiazol-5-yl)acetamide] | 
